In ChEMBL document CHEMBL5634141 (Eur J Med Chem, 2023):
The source made the active and inactive calls. No cut-off for these calls is given here.

What was measured:
[1] = system: NCI-H358; test: Induction of apoptosis in human NCI-H358 cells assessed as late apoptotic cells at 100 nM incubated for 48 hrs by Annexin V-FITC staining based flow cytometry analysis (reference value: 5.20 %); assay type: functional
[2] = system: NCI-H23; test: Antiproliferative activity against human NCI-H23 cells expressing KRAS G12C mutant assessed as relative cell viability at 30 nM incubated for 72 hrs in presence of daclolisib by CCK-8 assay; assay type: functional; conditions: read-out: Activity
[3] = system: von Hippel-Lindau disease tumor suppressor/GTPase KRas (Homo sapiens), P01116+P40337 [G12C]; test: PROTAC activity at VHL/KRAS G12C mutant in human NCI-H358 cells assessed as inhibition of ERK phosphorylation at 100 nM incubated for 1 to 8 days by Western blotting analysis; assay type: cell-based; conditions: time 1-8 day
[4] = system: NCI-H358; test: Synergistic antiproliferative activity against human NCI-H358 cells expressing KRAS G12C mutant assessed as combination index incubated for 72 hrs in presence of AZD4573 by CCK-8 assay; assay type: functional
[5] = system: SW837; test: Antiproliferative activity against human SW837 cells expressing KRAS G12C mutant assessed as relative cell viability at 30 nM incubated for 72 hrs in presence of infigratinib by CCK-8 assay; assay type: functional; conditions: read-out: Activity
[6] = system: MIA PaCa-2; test: Induction of apoptosis in human MIA PaCa-2 cells assessed as early apoptotic cells at 300 nM incubated for 48 hrs by Annexin V-FITC staining based flow cytometry analysis (reference value: 1.55 %); assay type: functional
[7] = system: MIA PaCa-2; test: Antiproliferative activity against human MIA PaCa-2 cells expressing KRAS G12C mutant assessed as relative cell viability at 30 nM incubated for 72 hrs in presence of crizotinib by CCK-8 assay; assay type: functional; conditions: read-out: Activity
[8] = system: MIA PaCa-2; test: Antitumor activity against human MIA PaCa-2 cells xenografted in BALB/c nude mouse assessed as reduction in percentage of CD31-positive cells at 10 to 30 mg/kg, ip administered for 16 days by immunohistochemical staining analysis; assay type: functional, organism-based; conditions: dose 10-30 mg/kg, time 16.0 day
[9] = system: NCI-H358; test: Inhibition of colony formation in human NCI-H358 cells expressing KRAS G12C mutant assessed as reduction in cell number at 30 nM incubated for 14 days in presence of linsitinib by crystal violet staining based analysis; assay type: functional; conditions: time 14.0 day
[10] = system: HepG2; test: Antiproliferative activity against human HepG2 cells expressing KRAS assessed as inhibition of cell growth incubated for 72 hrs by CCK-8 assay; assay type: functional, cell-based; conditions: HepG2, 72 h
[11] = system: SW837; test: Antiproliferative activity against human SW837 cells expressing KRAS G12C mutant assessed as relative cell viability at 30 nM incubated for 72 hrs by CCK-8 assay; assay type: functional; conditions: read-out: Activity
[12] = system: MIA PaCa-2; test: Antiproliferative activity against human MIA PaCa-2 cells expressing KRAS G12C mutant assessed as reduction of cell growth by measuring fold decrease in IC50 incubated for 72 hrs in presence of AZD4573 by CCK-8 assay; assay type: functional
[13] = system: NCI-H358; test: Antiproliferative activity against human NCI-H358 cells expressing KRAS G12C mutant assessed as relative cell viability at 30 nM incubated for 72 hrs in presence of infigratinib by CCK-8 assay; assay type: functional; conditions: read-out: Activity
[14] = system: NCI-H358; test: Synergistic antiproliferative activity against human NCI-H358 cells expressing KRAS G12C mutant assessed as combination index at 30 nM incubated for 72 hrs in presence of infigratinib by CCK-8 assay; assay type: functional
[15] = system: von Hippel-Lindau disease tumor suppressor/GTPase KRas (Homo sapiens), P01116+P40337 [G12C]; test: PROTAC activity at VHL/KRAS G12C mutant in human MIA PaCa-2 cells assessed as induction of protein degradation at 300 nM incubated for 24 hrs by Western blotting analysis relative to control; assay type: cell-based
[16] = system: MIA PaCa-2; test: Antitumor activity against human MIA PaCa-2 cells xenografted in BALB/c nude mouse assessed as reduction in percentage of Ki67-positive cells at 10 to 30 mg/kg, ip administered for 16 days by immunohistochemical staining analysis; assay type: functional, organism-based; conditions: dose 10-30 mg/kg, time 16.0 day
[17] = molecular target: von Hippel-Lindau disease tumor suppressor/GTPase KRas (Homo sapiens, UniProt P01116+P40337, G12C); test: (§1) PROTAC activity at VHL/KRAS G12C mutant in human MIA PaCa-2 cells assessed as induction of protein degradation by Western blotting analysis; assay type: cell-based
Chain of von Hippel-Lindau disease tumor suppressor/GTPase KRas (P01116 whole entry G12C, stated change not applied): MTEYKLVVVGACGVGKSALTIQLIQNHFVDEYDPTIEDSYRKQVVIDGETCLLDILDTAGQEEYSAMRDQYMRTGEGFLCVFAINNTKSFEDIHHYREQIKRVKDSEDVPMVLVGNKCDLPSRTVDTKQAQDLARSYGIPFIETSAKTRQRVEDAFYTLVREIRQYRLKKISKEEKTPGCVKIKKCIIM
Chain of von Hippel-Lindau disease tumor suppressor/GTPase KRas (P40337 whole entry, stated change not applied): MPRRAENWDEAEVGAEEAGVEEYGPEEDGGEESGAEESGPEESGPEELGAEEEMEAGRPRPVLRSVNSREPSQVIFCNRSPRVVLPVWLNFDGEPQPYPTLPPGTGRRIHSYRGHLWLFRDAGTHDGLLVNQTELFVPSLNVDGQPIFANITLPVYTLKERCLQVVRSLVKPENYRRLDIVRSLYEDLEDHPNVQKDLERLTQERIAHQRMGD

[18] = system: von Hippel-Lindau disease tumor suppressor/GTPase KRas (Homo sapiens), P01116+P40337 [G12C]; test: as §1; assay type: cell-based
[19] = system: Calu-1; test: Antiproliferative activity against human Calu-1 cells expressing KRAS G12C mutant assessed as relative cell viability at 30 nM incubated for 72 hrs in presence of selumetinib by CCK-8 assay; assay type: functional; conditions: read-out: Activity
[20] = Cmax in ICR mouse at 2 mg/kg, iv measured after 24 hrs by LC-MS/MS analysis; assay type: ADME, organism-based; conditions: in vivo
[21] = system: von Hippel-Lindau disease tumor suppressor/GTPase KRas (Homo sapiens), P01116+P40337 [G12C]; test: PROTAC activity at VHL/KRAS G12C mutant in human NCI-H358 cells assessed as induction of protein degradation at 100 nM incubated for 48 hrs followed by compound washout and measured after 48 hrs by Western blotting analysis; assay type: cell-based
[22] = system: SW837; test: Antiproliferative activity against human SW837 cells expressing KRAS G12C mutant assessed as relative cell viability at 30 nM incubated for 72 hrs in presence of selumetinib by CCK-8 assay; assay type: functional; conditions: read-out: Activity
[23] = system: von Hippel-Lindau disease tumor suppressor/GTPase KRas (Homo sapiens), P01116+P40337 [G12C]; test: PROTAC activity at VHL/KRAS G12C mutant in human NCI-H358 cells assessed as induction of protein degradation at 300 nM incubated for 24 hrs by Western blotting analysis relative to control; assay type: cell-based
[24] = system: Calu-1; test: Antiproliferative activity against human Calu-1 cells expressing KRAS G12C mutant assessed as relative cell viability at 30 nM incubated for 72 hrs in presence of crizotinib by CCK-8 assay; assay type: functional; conditions: read-out: Activity
[25] = system: MIA PaCa-2; test: Antitumor activity against human MIA PaCa-2 cells xenografted in BALB/c nude mouse assessed as reduction in percentage of KRAS-positive cells at 10 to 30 mg/kg, ip administered for 16 days by immunohistochemical staining analysis; assay type: functional, organism-based; conditions: dose 10-30 mg/kg, time 16.0 day
[26] = system: NCI-H358; test: Induction of apoptosis in human NCI-H358 cells assessed as viable cells at 300 nM incubated for 48 hrs by Annexin V-FITC staining based flow cytometry analysis (reference value: 91.6 %); assay type: functional; conditions: read-out: Activity
[27] = system: SW837; test: Antiproliferative activity against human SW837 cells expressing KRAS G12C mutant assessed as relative cell viability at 30 nM incubated for 72 hrs in presence of daclolisib by CCK-8 assay; assay type: functional; conditions: read-out: Activity
[28] = system: NCI-H358; test: Induction of apoptosis in human NCI-H358 cells assessed as early apoptotic cells at 30 nM incubated for 48 hrs by Annexin V-FITC staining based flow cytometry analysis (reference value: 1.60 %); assay type: functional
[29] = system: von Hippel-Lindau disease tumor suppressor/GTPase KRas (Homo sapiens), P01116+P40337 [G12C]; test: PROTAC activity at VHL/KRAS G12C mutant in human NCI-H358 cells assessed as inhibition of AKT phosphorylation at 100 nM incubated for 1 to 8 days by Western blotting analysis; assay type: cell-based; conditions: time 1-8 day
[30] = system: MIA PaCa-2; test: Induction of apoptosis in human MIA PaCa-2 cells assessed as necrotic cells at 300 nM incubated for 48 hrs by Annexin V-FITC staining based flow cytometry analysis (reference value: 1.25 %); assay type: functional
[31] = system: NCI-H358; test: Synergistic antiproliferative activity against human NCI-H358 cells expressing KRAS G12C mutant assessed as combination index at 30 nM incubated for 72 hrs in presence of MK-2206 by CCK-8 assay; assay type: functional

In the case of C=CC(=O)N1CCN(c2nc(=O)n(-c3c(C)ccnc3C(C)C)c3nc(-c4c(F)cccc4OCC4CCN(CCCC(=O)N[C@H](C(=O)N5C[C@H](O)C[C@H]5C(=O)NCc5ccc(-c6scnc6C)cc5)C(C)(C)C)CC4)c(F)cc23)[C@@H](C)C1, the Activity [1] is reported as 10%, the viability at 0.03 µM [2] is reported as 0.23% and the Activity [3] is reported as “Active”. It also gave a CI [4] of under 1, a viability at 0.03 µM [5] of 0.34% and an Activity [6] of 9.58%. The viability at 0.03 µM [7] was 0.28%, the Activity [8] was “Active” and the inhibition [9] was “Active”. For the same molecule, the IC50 [10] was over 10000 nM, the viability at 0.03 µM [11] was 0.77% and the “fold change (FC)” value [12] was about 9. For the same molecule, the viability at 0.03 µM [13] was 0.38%, the CI [14] was under 1 and the Activity [15] was 100%. The Activity [16] was “Active”, the DC50 [17] was 28 nM and the Activity [18] was “Dose-Dependent Effect”. The viability at 0.03 µM [19] was 0.13%, the Cmax [20] was 1170 ng/mL and the Activity [21] was “inactive”. It also gave a viability at 0.03 µM [22] of 0.2%, an Activity [23] of 100% and a viability at 0.03 µM [24] of 0.31%. The Activity [25] was “Active”, the viability at 0.3 µM [26] was 79.6% and the viability at 0.03 µM [27] was 0.24%. The Activity [28] was 3.48%, the Activity [29] was “Active” and the Activity [30] was 4.08%. It also gave a CI [31] of under 1.
